Measurements reported in US20050124618A1, “Methods of modulating angiogenesis and cancer cell proliferation” (priority 2003, published 2005).
“Also recorded” adds a separate entry of the source. Like-named read-outs stand apart in the source and are kept apart here.

What was measured:
[1] = test system: phospho-tyrosine and phospho-Ser/Thr-Pro proteins; assay: Western blot of tyrosine and serine/threonine protein phosphorylation in U251 cells; assay type: cell-based, human
Method: They were then pelleted by centrifugation at 1,000 g for 5 min at 4° C. Cells were lysed by adding RIPA buffer [20 mM HEPES (pH 7.4), 100 mM NaCl, 1% Nonidet P-40, 0.1% SDS, 1% deoxycholic acid, 10% glycerol, 1 mM EDTA, 1 mM NaVO3, 50 mM NaF, and Protease Inhibitors Set 1 (Calbiochem, La Jolla, Calif.)]. Plates were then scraped and cells collected in a 1.5-ml centrifuge tube, followed by incubation on ice for 30 min. Homogenates of the cell suspension were centrifuged for 10 min at 14,000 g and 4° C.; the pellets were discarded and protein concentrations in the supernatant determined by bicinchoninic acid (BCA) protein assay.
Typically, 20 μg of protein was separated on a 14% Tris-glycine gel (Invitrogen) and electroblotted on a PVDF membrane (Biotrace, Bothell, Wash.). Membranes were blocked for 1 h at room temperature with blocking buffer [0.2% I-Block reagent (Tropix, Bedford, Mass.), 0.1% Tween-20 in […]] before incubation with primary antibodies in blocking buffer (overnight at 4° C.). […] Both phospho-tyrosine (Y102) and phospho-serine/threonine-Pro MPM2 were detected using a 1:2000 dilution of the corresponding antibodies, whereas phospho-p44/p42MAPK and phospho-SAPK/JNK were detected using 1:1000 antibody dilutions. […]

[2] = test system: extensor digitorum longus (EDL) and tibialis anterior (TA) muscles; assay: Vessel density of EDL and TA muscles after 7 days of electrical stimulation; assay type: in vivo, rat
Method: Experimental protocols and tissue preparation: After a 24-h recovery period, the implanted stimulator was activated by momentary closure of the magnetic reed switch using a small hand-held magnet. […] Contractions of the extensor digitorum longus (EDL) and tibialis anterior (TA) muscles were automatically initiated at 9 AM each day and sustained for 8 h/day over a consecutive 7-day period. At the end of the stimulation period, the animals were euthanized by an overdose of pentobarbital sodium (100 mg/kg ip), and the EDL and TA muscles were harvested for analysis as previously described (Greene A S et al., Hypertension 15: 779-783, 1990; and Parmentier J H et al., Hypertension 37: 623-629, 2001).
Tissue harvest and morphological analysis of vessel density: The stimulated and contralateral muscles were removed, weighed, and rinsed in physiological salt solution. A 300-mg sample was taken from the rostral portion of the TA muscle and frozen in liquid nitrogen for Western blot (100 mg) and HPLC (200 mg) analysis for measurement of VEGF protein expression and 20-HETE formation, respectively. The remaining TA and EDL muscles were lightly fixed in a 0.25% formalin solution overnight. The muscles were sectioned via a manual microtome to a thickness of about 100 μm by securing the tendons and slicing parallel to the longitudinal orientation of the muscle fibers. From every animal, two slices of each EDL muscle and three slices of each TA muscle were made. The slices were than immersed for 2 h in a solution of 25 μg/ml rhodamine-labeled Griffonia simplicifolia I (GS-I) lectin (Sigma; St. Louis, Mo. (Greene A S et al., Hypertension 15: 779-783, 1990)). Immediately after this 2-h exposure to GS-I lectin, the muscles were rinsed in physiological solution. The rinsing procedure was repeated after 15 and 30 min, and the muscles were rinsed in physiological saline solution for 12 h (overnight, at 4° C.). On the next day, the slices were mounted on microscope slides with a water-soluble mounting medium consisting of toluene and acrylic resin (SP ACCU-MOUNT 280, Baxter Scientific).
The labeled sections were visualized using a video fluorescent microscope system (Olympus ULWD CD Plan, ×20 objective, 1.6 cm working distance and 0.4 numerical aperture) with epi-illumination, as previously described (Parmentier J H et al., Hypertension 37: 623-629, 2001). In the present study, 10-15 and 20-25 representative fields were selected for study from each EDL and TA muscle slice, respectively. Each field was converted to a digitized image (DT2801 Data Translation; Marlboro, Mass.) and stored as an 8-bit/pixel image file with a resolution of 512×512 pixels. Morphometric analysis of the scanned histochemical sections was done as previously described (Parmentier J H et al., Hypertension 37: 623-629, 2001).
Data analysis and statistics: For each muscle, the vessel counts of all the selected fields (10-15 scans×2 slices for each EDL muscle; 20-25 scans×3 slices for each TA muscle) were averaged to a single vessel density. Vessel density was expressed in terms of the mean number of vessel-grid intersections per microscope field (0.224 mm^2). For each experimental group, the measured vessel density and 20-HETE formation of the stimulated muscle was compared with its unstimulated counterpart as well as with age-matched controls. All values are presented as means±SE. The significance of differences in values measured in the same animal was evaluated using a two-factor ANOVA (drug×stimulation) with repeated measures on one factor (stimulation). Significant differences were further investigated using a post hoc test (Tukey's).

[3] = test system: U251 human glioma cells; assay: [3H]thymidine incorporation in U251 cells; assay type: cell-based; details: for inhibition at 10 µM: Homo sapiens
Method: [^3H]Thymidine Incorporation Studies: Thymidine incorporation studies were performed with cells grown in 35-mm culture dishes. […] Palmitic acid and EtOH served as fatty acid and vehicle controls, respectively. At the end of the pulse, the medium was aspirated and the cells rinsed twice with cold 1× phosphate buffered saline (PBS). The rinsed cultures were fixed by exposure to cold 5% trichloracetic acid overnight at 4° C., after which fixed cells were extracted as described previously (Scholler et al., Mol. Pharmacol. 45: 944-954, 1994). A second set of non-fixed dishes was treated with 0.05% trypsin/EDTA to estimate cell numbers. [^3H]thymidine was detected by scintillation counting and expressed as dpm/10^3 cells.

[4] = chronic treatment, 7 days electrical stimulation

## CCCCc1ccc(N=CNO)c(C)c1 [HET0016, N-hydroxy-N′-(4-butyl-2 methylphenyl) formamidine]
[1]; 10 μM HET0016
  serine/threonine phosphorylation of proteins: no significant changes
[1]; 10 μM HET0016, 24 and 48 hr
  tyrosine phosphorylation of proteins: inhibition which was seen at 24 and 48 hr; also recorded: significant decreases at 24 and 48 hr
[2]; 7 days, HET0016 2 mg kg−1 day−1, ABT 50 mg kg−1 day−1
  effect on the increase in vessel density (angiogenesis) induced by electrical stimulation: completely blocked
[2]; chronic treatment, 7 days
  vessel density, EDL, unstimulated side: 116.0±1.0 number of vessel intersections
  vessel density, TA, unstimulated side: 105.7±4.9 number of vessel intersections
[2]; [4]
  vessel density, EDL, stimulated side: 118.0±10.1 number of vessel intersections
  vessel density, TA, stimulated side: 110.5±1.1 number of vessel intersections
[3]; 10 μM HET0016, approximately 48 hr
  inhibition of DNA synthesis ([3H]thymidine incorporation/uptake): 66%
[3]; U-251, 10 μM HET0016, approximately 24 hr, read-out: inhibition of DNA synthesis ([3H]thymidine incorporation)
  inhibition at 10 µM: 50%
[3]; U-251, 10 μM HET0016, approximately 48 hr, read-out: inhibition of DNA synthesis ([3H]thymidine incorporation/uptake)
  inhibition at 10 µM: 65%
